Molecules are shown by their SMILES. pKd: −log10 of the molar value.

CRBN truncate (318-426), sequence (Q96SW2 318-426): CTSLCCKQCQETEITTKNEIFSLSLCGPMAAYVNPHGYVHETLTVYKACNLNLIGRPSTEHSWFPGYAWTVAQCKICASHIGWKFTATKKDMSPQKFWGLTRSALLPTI

This test concerns the target CRBN truncate (318-426) (Homo sapiens (Human), UniProt Q96SW2). The test can be described thus: Measurement of molecular interactions using surface plasmon resonance (SPR), Biacore T200. As to conditions: 25° C., immobilized CRBN truncate, upper limit of measurement 200 μM. The test is classed as binding. The method in brief: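 Compound injections used 60 s association and 120 s dissociation in HEPES pH 7.5 buffer (150 mM NaCl, 1 mM TCEP, 0.005% Tween 20, 2% DMSO). The ligand was CRBN truncate 318-426 bearing a C-terminal Avi-tag, immobilised via streptavidin on an SA sensor chip.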
Consider `Cc1sc2c(c1C)C(c1ccc(Cl)cc1)=N[C@@H](CC(=O)NCCCCCCCCNC(=O)c1ccc(OC3CCCC(=O)NC3=O)nc1)c1nnc(C)n1-2` (stereo partly drawn) [Example 338, N-[8-[[2-[(9S)-7-(4-chlorophenyl)-4,5,13-trimethyl-3-thia-1,8,11,12-tetraazatricyclo[8.3.0.02,6]trideca-2(6),4,7,10,12-pentaen-9-yl]acetyl]amino]octyl]-6-(2,7-dioxoazepan-3-yl)oxypyridine-3-carboxamide], for which the pKd (in general, the negative decadic logarithm of the Kd, by convention in mol/L) was greater than 4.30.

On to `Cc1sc2c(c1C)C(c1ccc(Cl)cc1)=N[C@@H](CC(=O)NCCCCCCCCNC(=O)COc1ccc(C#N)c(N3CCC4(CCCC(=O)NC4=O)C3)c1)c1nnc(C)n1-2` (stereo partly drawn) [Example 339, 2-[(9S)-7-(4-chlorophenyl)-4,5,13-trimethyl-3-thia-1,8,11,12-tetraazatricyclo[8.3.0.02,6]trideca-2(6),4,7,10,12-pentaen-9-yl]-N-[8-[[2-[4-cyano-3-(6,8-dioxo-2,7-diazaspiro[4.6]undecan-2-yl)phenoxy]acetyl]amino]octyl]acetamide], for which the pKd is greater than 4.30.

The molecule `Cc1sc2c(c1C)C(c1ccc(Cl)cc1)=N[C@@H](CC(=O)NCCCCCCCCNC(=O)COc1ccccc1-c1cn(C3CCCC(=O)NC3=O)nn1)c1nnc(C)n1-2` (stereo partly drawn) [Example 340, 2-[(9S)-7-(4-chlorophenyl)-4,5,13-trimethyl-3-thia-1,8,11,12-tetraazatricyclo[8.3.0.02,6]trideca-2(6),4,7,10,12-pentaen-9-yl]-N-[8-[[2-[2-[1-(2,7-dioxoazepan-3-yl)triazol-4-yl]phenoxy]acetyl]amino]octyl]acetamide] showed a negative-log Kd (pKd) greater than 4.30.

The molecule `Cc1sc2c(c1C)C(c1ccc(Cl)cc1)=N[C@@H](CC(=O)NCCCCCCCCNC(=O)CCc1ccc3c(c1)oc(=O)n3C1CCCC(=O)NC1=O)c1nnc(C)n1-2` (stereo partly drawn) [Example 341, N-[8-[[2-[(9S)-7-(4-chlorophenyl)-4,5,13-trimethyl-3-thia-1,8,11,12-tetraazatricyclo[8.3.0.02,6]trideca-2(6),4,7,10,12-pentaen-9-yl]acetyl]amino]octyl]-3-[3-(2,7-dioxoazepan-3-yl)-2-oxo-1,3-benzoxazol-6-yl]propanamide] had a negative logarithm of the Kd (pKd) greater than 4.30.

For `Cc1sc2c(c1C)C(c1ccc(Cl)cc1)=N[C@@H](CC(=O)NCCCCCCCCNC(=O)CCc1ccc3c(c1)sc(=O)n3C1CCCC(=O)NC1=O)c1nnc(C)n1-2` (stereo partly drawn) [Example 342, N-[8-[[2-[(9S)-7-(4-chlorophenyl)-4,5,13-trimethyl-3-thia-1,8,11,12-tetraazatricyclo[8.3.0.02,6]trideca-2(6),4,7,10,12-pentaen-9-yl]acetyl]amino]octyl]-3-[3-(2,7-dioxoazepan-3-yl)-2-oxo-1,3-benzothiazol-6-yl]propanamide], the pKd was greater than 4.30.

`Cc1sc2c(c1C)C(c1ccc(Cl)cc1)=N[C@@H](CC(=O)NCCCCCCCCNC(=O)CCc1cccc3c(=O)n(C4CCCC(=O)NC4=O)ccc13)c1nnc(C)n1-2` (stereo partly drawn) [Example 343, N-[8-[[2-[(9S)-7-(4-chlorophenyl)-4,5,13-trimethyl-3-thia-1,8,11,12-tetraazatricyclo[8.3.0.02,6]trideca-2(6),4,7,10,12-pentaen-9-yl]acetyl]amino]octyl]-3-[2-(2,7-dioxoazepan-3-yl)-1-oxoisoquinolin-5-yl]propanamide]: the pKd is greater than 4.30.

Take `Cc1sc2c(c1C)C(c1ccc(Cl)cc1)=N[C@@H](CC(=O)NCCCCCCCCNC(=O)CCc1ccc3c(=O)n(C4CCCC(=O)NC4=O)c(=O)n(C)c3c1)c1nnc(C)n1-2` (stereo partly drawn) [Example 344, N-[8-[[2-[(9S)-7-(4-chlorophenyl)-4,5,13-trimethyl-3-thia-1,8,11,12-tetraazatricyclo[8.3.0.02,6]trideca-2(6),4,7,10,12-pentaen-9-yl]acetyl]amino]octyl]-3-[3-(2,7-dioxoazepan-3-yl)-1-methyl-2,4-dioxo-quinazolin-7-yl]propanamide]: the pKd is greater than 4.30.

In turn, `Cc1sc2c(c1C)C(c1ccc(Cl)cc1)=N[C@@H](CC(=O)NCCCCCCCNC(=O)CN1CCC3(CCCC(=O)NC3=O)CC1=O)c1nnc(C)n1-2` (stereo partly drawn) [Example 345, 2-[(9S)-7-(4-chlorophenyl)-4,5,13-trimethyl-3-thia-1,8,11,12-tetraazatricyclo[8.3.0.02,6]trideca-2(6),4,7,10,12-pentaen-9-yl]-N-[7-[[2-(4,7,9-trioxo-3,8-diazaspiro[5.6]dodecan-3-yl)acetyl]amino]heptyl]acetamide] showed a pKd of 4.00 to 4.30.

For `Cc1sc2c(c1C)C(c1ccc(Cl)cc1)=N[C@@H](CC(=O)NCCCCCCCCNC(=O)CCc1ccc3c(N4CCCC(=O)NC4=O)nn(C)c3c1)c1nnc(C)n1-2` [Example 346, N-[8-[[2-[(9S)-7-(4-chlorophenyl)-4,5,13-trimethyl-3-thia-1,8,11,12-tetraazatricyclo[8.3.0.02,6]trideca-2(6),4,7,10,12-pentaen-9-yl]acetyl]amino]octyl]-3-[3-(2,4-dioxo-1,3-diazepan-1-yl)-1-methyl-indazol-6-yl]propanamide], the negative-log Kd (pKd) is greater than 4.30.

On to `Cc1sc2c(c1C)C(c1ccc(Cl)cc1)=N[C@@H](CC(=O)NCCCCCCCNC(=O)COc1cccc(C(=O)NC3CCCC(=O)NC3=O)n1)c1nnc(C)n1-2` (stereo partly drawn) [Example 347, 6-[2-[7-[[2-[(9S)-7-(4-chlorophenyl)-4,5,13-trimethyl-3-thia-1,8,11,12-tetraazatricyclo[8.3.0.02,6]trideca-2(6),4,7,10,12-pentaen-9-yl]acetyl]amino]heptylamino]-2-oxo-ethoxy]-N-(2,7-dioxoazepan-3-yl)pyridine-2-carboxamide], for which the pKd was greater than 4.30.

Molecule `Cc1sc2c(c1C)C(c1ccc(Cl)cc1)=N[C@@H](CC(=O)NCCCCCCCCNC(=O)/C=C/c1cccc3c1N(C)C(=O)C3(C)N1C=CCC(=O)NC1=O)c1nnc(C)n1-2` (stereo partly drawn) [Example 348, (E)-N-[8-[[2-[(9S)-7-(4-chlorophenyl)-4,5,13-trimethyl-3-thia-1,8,11,12-tetrazatricyclo[8.3.0.02,6]trideca-2(6),4,7,10,12-pentaen-9-yl]acetyl]amino]octyl]-3-[3-(2,4-dioxo-5H-1,3-diazepin-1-yl)-1,3-dimethyl-2-oxoindolin-7-yl]prop-2-enamide] had a pKd greater than 4.30.

Regarding `Cc1sc2c(c1C)C(c1ccc(Cl)cc1)=N[C@@H](CC(=O)NCCCCCCCNC(=O)Cn1c(=O)c(=O)n(C3CCCC(=O)NC3=O)c3ccccc31)c1nnc(C)n1-2` (stereo partly drawn) [Example 350, 2-[(9S)-7-(4-chlorophenyl)-4,5,13-trimethyl-3-thia-1,8,11,12-tetraazatricyclo[8.3.0.02,6]trideca-2(6),4,7,10,12-pentaen-9-yl]-N-[7-[[2-[4-(2,7-dioxoazepan-3-yl)-2,3-dioxo-quinoxalin-1-yl]acetyl]amino]heptyl]acetamide], the pKd is greater than 4.30.

`Cc1sc2c(c1C)C(c1ccc(Cl)cc1)=N[C@@H](CC(=O)NCCCCCCCCNC(=O)CN1C(=O)[C@@](C)(N3CCCC(=O)NC3=O)c3ccccc31)c1nnc(C)n1-2` [Example 352, 2-[(9S)-7-(4-Chlorophenyl)-4,5,13-trimethyl-3-thia-1,8,11,12-tetraazatricyclo[8.3.0.02,6]trideca-2(6),4,7,10,12-pentaen-9-yl]-N-[8-[[2-[3-(2,4-dioxo-1,3-diazepan-1-yl)-3-methyl-2-oxoindol-1-yl]acetyl]amino]octyl]acetamide] showed a pKd greater than 4.30.

Turning to `Cc1sc2c(c1C)C(c1ccc(Cl)cc1)=N[C@@H](CC(=O)NCCCCCCCCCCC(=O)N1CCC(c3cnc(N4CCC5(CCCC(=O)NC5=O)C4)nc3)CC1)c1nnc(C)n1-2` (stereo partly drawn) [Example 354, 2-[(9S)-7-(4-Chlorophenyl)-4,5,13-trimethyl-3-thia-1,8,11,12-tetraazatricyclo[8.3.0.02,6]trideca-2(6),4,7,10,12-pentaen-9-yl]-N-[11-[4-[2-(6,8-dioxo-2,7-diazaspiro[4.6]undecan-2-yl)pyrimidin-5-yl]piperidin-1-yl]-11-oxoundecyl]acetamide], the pKd is greater than 4.30.

Take `Cc1sc2c(c1C)C(c1ccc(Cl)cc1)=N[C@@H](CC(=O)NCCCCCCCCCCC(=O)N1CCC(c3cccc(NC45CCC(CC4)C(=O)NC5=O)c3)CC1)c1nnc(C)n1-2` [Example 355, 2-[(9S)-7-(4-chlorophenyl)-4,5,13-trimethyl-3-thia-1,8,11,12-tetraazatricyclo[8.3.0.02,6]trideca-2(6),4,7,10,12-pentaen-9-yl]-N-[11-[4-[3-[(2,4-dioxo-3-azabicyclo[3.2.2]nonan-1-yl)amino]phenyl]piperidin-1-yl]-11-oxoundecyl]acetamide]: the negative-log Kd (pKd) was 4.00 to 4.30.

`Cc1sc2c(c1C)C(c1ccc(Cl)cc1)=N[C@@H](CC(=O)NCCCCCCCCCCC(=O)N1CCC(c3ccc(OC4CCCC(=O)NC4=O)cc3)CC1)c1nnc(C)n1-2` (stereo partly drawn) [Example 356] showed a pKd greater than 4.30.

In turn, `Cc1sc2c(c1C)C(c1ccc(Cl)cc1)=N[C@@H](CC(=O)NCCCCCCCCCCC(=O)N1CCc3c(ncnc3N3CC4(CC(=O)N(C5CCC(=O)NC5=O)C4=O)C3)C1)c1nnc(C)n1-2` (stereo partly drawn) [Example 357, 2-[(9S)-7-(4-chlorophenyl)-4,5,13-trimethyl-3-thia-1,8,11,12-tetraazatricyclo[8.3.0.02,6]trideca-2(6),4,7,10,12-pentaen-9-yl]-N-[11-[4-[6-(2,6-dioxo-3-piperidyl)-5,7-dioxo-2,6-diazaspiro[3.4]octan-2-yl]-6,8-dihydro-5H-pyrido[3,4-d]pyrimidin-7-yl]-11-oxo-undecyl]acetamide] showed a negative logarithm of the Kd (pKd) greater than 4.30.

Molecule `C[C@@H]1Cc2c([nH]c3ccccc23)[C@@H](c2cnc(N3CCC(CN(C)CCCCCCCc4cccc5c4n(C)c(=O)n5C4CCCC(=O)NC4=O)CC3)nc2)N1CC(C)(C)F` (stereo partly drawn) [Example 360-3, 3-[4-[7-[[1-[5-[(1R,3R)-2-(2-fluoro-2-methyl-propyl)-3-methyl-1,3,4,9-tetrahydropyrido[3,4-b]indol-1-yl]pyrimidin-2-yl]-4-piperidyl]methyl-methyl-amino]heptyl]-3-methyl-2-oxo-benzimidazol-1-yl]azepane-2,7-dione] had a pKd greater than 4.30.

(Values after patent publication US20250388593A1 (MITSUBISHI TANABE PHARMA CORPORATION, priority 2023, published 2025).)
